Data from patent US20060128729A1, “Novel bicyclic heterocyclic compounds, process for their preparation and compositions containing them” (priority 2004, published 2006).
Counter-ions that a name gives are not always drawn.

`COc1cc(Nc2nc(-c3ccccc3)nc3c(C)nn(C)c23)ccc1Cl.Cl` gave a melting point of 222 to 224 °C.
`CCCc1nn(C)c2c(-c3ccc(OC)c(C)c3)nc(-c3ccccc3)nc12` [E 60, 7-(4-methoxy-3-methyl-phenyl)-1-methyl-5-phenyl-3-propyl-1H-pyrazolo[4,3-d]pyrimidine] showed a melting point of 158 to 160 °C.
For `Cc1nn(C)c2c(F)nc(-c3ccccc3)nc12` [E 99, 7-fluoro-1,3-dimethyl-5-phenyl-1H-pyrazolo[4,3-d]pyrimidine], the melting point was 110 to 112 °C.
With `CCCc1nn(C)c2c(Nc3ccc(O)c(F)c3)nc(-c3ccc(F)cc3)nc12.Cl` the melting point was 161 to 162 °C.
Work on `Cc1nn(C)c2c(-c3ccc4c(c3)OCO4)nc(-c3ccccc3)nc12` [E 65, 7-benzo[1,3]dioxol-5-yl-1,3-dimethyl-5-phenyl-1H-pyrazolo[4,3-d]pyrimidine] yielded a melting point of 142 to 144 °C.
Compound `CCCc1nn(C)c2c(-n3ccc4cc(Cl)ccc43)nc(-c3ccc(F)cc3)nc12` [E 89] has a melting point of 146 to 148 °C.
In the case of `CCCc1nn(C)c2c(Nc3cccc(C(F)(F)F)c3)nc(-c3ccc(F)cc3)nc12.Cl`, the melting point is reported as 220 to 222 °C.
Compound `Cc1nn(C)c2cc(-c3ccc(F)cc3)nc(Nc3ccc(Cl)c(C(F)(F)F)c3)c12.Cl` has a melting point of 223 to 225 °C.
Work on `CCCc1nn(C)c2c(-c3ccc(O)c(Cl)c3)nc(-c3ccc(F)cc3)nc12` [E 55, 2-chloro-4-[5-(4-fluoro-phenyl)-1-methyl-3-propyl-1H-pyrazolo[4,3-d]pyrimidin-7-yl]-phenol] yielded a melting point of 182 to 184 °C.
Compound `Cc1nn(C)c2c(Nc3ccc(O)c(Cl)c3)nc(-c3ccc(F)cc3)nc12.Cl` has a melting point of 238 to 240 °C.
For `CCCc1nn(C)c2c(Nc3ccc(OC)c(F)c3)nc(-c3ccccc3OCC)nc12.Cl`, the melting point was 194 to 196 °C.
For `Cc1nn(C)c2cc(-c3ccc(F)cc3)nc(Nc3ccc(OC(F)(F)F)cc3)c12.Cl`, the melting point was 248 to 250 °C.
`CNS(=O)(=O)c1ccc(Nc2nc(-c3ccc(F)cc3)cc3c2c(C)nn3C)cc1.Cl` gave a melting point of 293 to 295 °C.
`Cc1nn(C)c2c(Nc3ccc(C(N)=O)cc3)nc(-c3ccc(F)cc3)nc12.Cl` showed a melting point of 272 to 274 °C.
`CCCc1nn(C)c2c(Nc3ccc(F)cc3)nc(-c3ccc(F)cc3)nc12.Cl` showed a melting point of 161 to 164 °C.
In the case of `Cl.Fc1ccc(-c2nc(Nc3cccc(F)c3)c3cnn(-c4ccccc4)c3n2)cc1`, the melting point is reported as 210 to 213 °C.
For `CC(=O)Nc1cc(Nc2nc(-c3ccc(F)cc3)nc3c(C)nn(C)c23)ccc1O.Cl`, the melting point was 250 to 252 °C.
`CCCc1nn(C)c2c(-c3ccc(O)c(C)c3)nc(-c3ccc(OC)c(OC)c3)nc12` [E 53, 4-[5-(3,4-dimethoxy-phenyl)-1-methyl-3-propyl-1H-pyrazolo[4,3-d]pyrimidin-7-yl]-2-methyl-phenol] showed a melting point of 198 to 200 °C.
In the case of `CCCc1nn(C)c2c(Nc3ccc4c(c3)OCO4)nc(-c3cccs3)nc12.Cl`, the melting point is reported as 246 to 250 °C.
`Cc1nn(C)c2c(-c3ccc(OC(F)(F)F)cc3)nc(-c3ccc(F)cc3)nc12` [E 101, 5-(4-fluoro-phenyl)-1,3-dimethyl-7-(4-trifluoromethoxy-phenyl)-1H-pyrazolo[4,3-d]pyrimidine] showed a melting point of 170 to 172 °C.
Work on `Cc1nn(C)c2c(N(C)C)nc(-c3ccccc3)nc12` [E 102, (1,3-dimethyl-5-phenyl-1H-pyrazolo[4,3-d]pyrimidin-7-yl)-dimethyl-amine] yielded a melting point of 86 to 88 °C.
`Cc1nn(C)c2c(-c3cccc(S(C)(=O)=O)c3)nc(-c3ccccc3)nc12` [E 67, 7-(3-methanesulfonyl-phenyl)-1,3-dimethyl-5-phenyl-1H-pyrazolo[4,3-d]pyrimidine] showed a melting point of 210 to 212 °C.
With `Cl.Fc1ccc(-c2nc(Nc3ccc(OC(F)(F)F)cc3)c3cnn(-c4ccccc4)c3n2)cc1` the melting point was 220 to 222 °C.
`CCCc1nn(C)c2c(C#Cc3ccccc3)nc(-c3ccc(F)cc3)nc12` [E 70, 5-(4-fluoro-phenyl)-1-methyl-7-phenylethynyl-3-propyl-1H-pyrazolo[4,3-d]pyrimidine] showed a melting point of 156 to 158 °C.
In the case of `CCCc1nn(C)c2c(Nc3ccc(Cl)c(OC)c3)nc(-c3ccc(F)cc3)nc12.Cl`, the melting point is reported as 230 to 232 °C.
`CCCc1nn(C)c2c(Nc3ccc(O)c(Cl)c3)nc(-c3ccccc3)nc12.Cl` gave a melting point of 180 °C.
Work on `CCCc1nn(C)c2c(Nc3ccc(Cl)c(OC)c3)nc(-c3ccccc3)nc12.Cl` yielded a melting point of 228 to 230 °C.
Compound `Cc1nn(C)c2c(Nc3cccc(F)c3)nc(-c3ccccc3)nc12.Cl` has a melting point of 218 to 220 °C.
`CCCc1nn(C)c2c(Nc3ccc4c(c3)OCO4)nc(-c3cccs3)nc12` (as salt: hydrochloride) [E 52, benzo[1,3]dioxol-5-yl-(1-methyl-3-propyl-5-thiophen-2-yl-1H-pyrazolo[4,3-d]pyrimidin-7-yl)-amine hydrochloride] showed a melting point of 246 to 250 °C.
In the case of `Cc1nn(C)c2c(-n3ccc4ccccc43)nc(-c3ccccc3)nc12` [E 90, 7-indol-1-yl-1,3-dimethyl-5-phenyl-1H-pyrazolo[4,3-d]pyrimidine], the melting point is reported as 141 to 143 °C.
`Cc1nn(C)c2c(-c3cccc(S(C)(=O)=O)c3)nc(-c3ccc(F)cc3)nc12` [E 68, 5-(4-fluoro-phenyl)-7-(3-methanesulfonyl-phenyl)-1,3-dimethyl-1H-pyrazolo[4,3-d]pyrimidine] gave a melting point of 176 to 178 °C.
Work on `Cc1nn(C)c2cc(-c3ccc(F)cc3)nc(-c3ccc(OC(F)(F)F)cc3)c12` [E 94, 6-(4-fluoro-phenyl)-1,3-dimethyl-4-(4-trifluoromethoxy-phenyl)-1H-pyrazolo[4,3-c]pyridine] yielded a melting point of 92 to 94 °C.
`CCCc1nn(C)c2c(-c3ccc(OC)c(C)c3)nc(-c3ccc(F)cc3)nc12` [E 58, 5-(4-fluoro-phenyl)-7-(4-methoxy-3-methyl-phenyl)-1-methyl-3-propyl-1H-pyrazolo[4,3-d]pyrimidine] gave a melting point of 136 to 138 °C.
Compound `CCCc1nn(C)c2c(-c3ccc(O)c(C)c3)nc(-c3ccccc3)nc12` [E 57, 2-methyl-4-(1-methyl-5-phenyl-3-propyl-1H-pyrazolo[4,3-d]pyrimidin-7-yl)-phenol] has a melting point of 204 to 206 °C.
With `CCCc1nn(C)c2c(-c3ccc(O)c(C)c3)nc(-c3ccc(OC)c(O)c3)nc12` [E 54, 4-[5-(3-hydroxy,4-methoxy-phenyl)-1-methyl-3-propyl-1H-pyrazolo[4,3-d]pyrimidin-7-yl]-2-methyl-phenol] the melting point was 180 to 182 °C.
Work on `Cc1nn(C)c2c(-c3ccccc3)nc(-c3ccc(F)cc3)nc12` [E 66, 5-(4-fluoro-phenyl)-1,3-dimethyl-7-phenyl-1H-pyrazolo[4,3-d]pyrimidine] yielded a melting point of 150 to 152 °C.
`CCCc1nn(C)c2c(-c3ccccc3)nc(-c3ccc(F)cc3)nc12` [E 64, 5-(4-fluoro-phenyl)-1-methyl-7-phenyl-3-propyl-1H-pyrazolo[4,3-d]pyrimidine] gave a melting point of 115 to 118 °C.
In the case of `Cc1nn(C)c2c(Nc3ccc(O)c(Cl)c3)nc(-c3cccs3)nc12.Cl`, the melting point is reported as > 240 °C.
For `CCCc1nn(C)c2c(Nc3ccc(OC)c(Cl)c3)nc(-c3cccs3)nc12.Cl`, the melting point was 258 to 260 °C.
Work on `CCCc1nn(C)c2c(-n3ccc4ccccc43)nc(-c3ccc(F)cc3)nc12` [E 88, 5-(4-fluoro-phenyl)-7-indol-1-yl-1-methyl-3-propyl-1H-pyrazolo[4,3-d]pyrimidine] yielded a melting point of 114 to 116 °C.
With `CCCc1nn(C)c2c(-c3ccc(C)cc3)nc(-c3ccc(F)cc3)nc12` [E 63, 5-(4-fluoro-phenyl)-1-methyl-3-propyl-7-p-tolyl-1H-pyrazolo[4,3-d]pyrimidine] the melting point was 148 to 150 °C.
Work on `CCCc1nn(C)c2c(Oc3ccc(F)cc3)nc(-c3ccccc3)nc12` yielded a melting point of 126 to 128 °C.
`Cc1nn(C)c2c(Nc3ccc(Cl)nc3)nc(-c3ccc(F)cc3)nc12.Cl` showed a melting point of 248 to 250 °C.
`CCCc1nn(C)c2c(-c3ccc(OC)c(F)c3)nc(-c3ccc(F)cc3)nc12` [E 59, 7-(3-fluoro-4-methoxy-phenyl)-5-(4-fluoro-phenyl)-1-methyl-3-propyl-1H-pyrazolo[4,3-d]pyrimidine] gave a melting point of 174 to 176 °C.
`Cc1nn(C)c2cc(-c3ccc(F)cc3)nc(-c3ccc(S(C)(=O)=O)cc3)c12` [E 98, 6-(4-fluoro-phenyl)-4-(4-methanesulfonyl-phenyl)-1,3-dimethyl-1H-pyrazolo[4,3-c]pyridine] gave a melting point of 228 to 230 °C.
In the case of `CCCc1nn(C)c2c(Nc3ccc(Cl)c(OC)c3)nc(-c3cccs3)nc12.Cl`, the melting point is reported as 200 to 204 °C.
Work on `Cc1nn(C)c2cc(-c3ccc(F)cc3)nc(Nc3ccc(Cl)nc3)c12.Cl` yielded a melting point of 215 to 218 °C.
In the case of `COc1cc(Nc2nc(-c3cccs3)nc3c(C)nn(C)c23)ccc1Cl.Cl`, the melting point is reported as > 240 °C.
Work on `Cc1nn(C)c2cc(-c3ccc(F)cc3)nc(-c3cccc(S(C)(=O)=O)c3)c12` [E 93, 6-(4-fluoro-phenyl)-4-(3-methanesulfonyl-phenyl)-1,3-dimethyl-1H-pyrazolo[4,3-c]pyridine] yielded a melting point of 186 to 188 °C.
Compound `CCCc1nn(C)c2c(-c3ccc(SC)cc3)nc(-c3ccc(F)cc3)nc12` [E 62, 5-(4-fluoro-phenyl)-1-methyl-7-(4-methylsulfanyl-phenyl)-3-propyl-1H-pyrazolo[4,3-d]pyrimidine] has a melting point of 114 to 116 °C.
With `Cc1nc2cc(Nc3nc(-c4ccccc4)nc4c(C)nn(C)c34)ccc2o1.Cl` the melting point was 272 to 274 °C.
With `CCCc1nn(C)c2c(-c3ccc(OC)c(F)c3)nc(-c3ccccc3)nc12` [E 61, 7-(3-fluoro-4-methoxy-phenyl)-1-methyl-5-phenyl-3-propyl-1H-pyrazolo[4,3-d]pyrimidine] the melting point was 158 to 160 °C.
For `CCCc1nn(C)c2c(Nc3ccc(O)c(Cl)c3)nc(-c3ccc(F)cc3)nc12.Cl`, the melting point was 200 to 202 °C.
With `CCCc1nn(C)c2c(Nc3ccc(OC)c(OC)c3)nc(-c3ccc(F)cc3)nc12.Cl` the melting point was 178 to 181 °C.
`CCCc1nn(C)c2c(Nc3ccc(OC)c(F)c3)nc(C(F)(F)F)nc12.Cl` showed a melting point of 136 to 138 °C.
`Cc1nn(C)c2cc(-c3ccc(F)cc3)nc(Nc3cccc(C(F)(F)F)c3)c12.Cl` showed a melting point of 220 to 222 °C.
`CCCc1nn(C)c2c(-c3ccc(S(C)(=O)=O)cc3)nc(-c3ccc(F)cc3)nc12` [E 69, 5-(4-fluoro-phenyl)-7-(4-methanesulfonyl-phenyl)-1-methyl-3-propyl-1H-pyrazolo[4,3-d]pyrimidine] gave a melting point of 208 to 210 °C.
